Literature values, collected in patent US20230190668A1, “SLOW-RELEASE MEDICAL PLASTER” (FIDIA FARMACEUTICI S.P.A., priority 2020, published 2023).
Counter-ions that a name gives are not always drawn. Like-named read-outs stand apart in the source and are kept apart here.

Conditions: same matrix, active ingredient amount and excipients, 24 hours, without BHA

release from medical plaster with PSA matrix of Eudragit NE40 and citric acid ester (sodium salt) | Structure (SMILES) | release from medical plaster with PSA matrix of Eudragit NE40 and citric acid ester
released in a minimal way | O=C(O)Cc1ccccc1Nc1c(Cl)cccc1Cl [diclofenac sodium salt] | –
– | O=C(O)Cc1ccccc1Nc1c(Cl)cccc1Cl [diclofenac DEA salt, diclofenac diethylammonium salt] | released in a constant, continuous, prolonged and therapeutically effective way for 24 hours
